Earlier results, collected in patent publication EP2361081B1, “MULTI PORTION INTRA-ORAL DOSAGE FORM AND USE THEREOF” (McNeil AB, priority 2008, dated 2010).
Read-outs that look alike come from different tables or passages of the source. Peptide text beside a SMILES is read from it.

How the values were obtained:
[1] = pKa value lying in interval 8 - 9,6; taken from Handbook of Chemistry and Physics, 85th edition
[2] = stated in the context of absorption from the oral cavity
[3] = in water; footnote b) = low or uncertain value, taken from Handbook of Chemistry and Physics, 85th edition

Compound | pKa value (in interval 8 - 9,6) [1] | Solubility in water, g/kg [3] | further results
NC(=O)C[C@H](N)C(=O)O [Aspargine] | 8,73 |  | 
N[C@@H](CS(=O)(=O)O)C(=O)O [Cysteic acid] | 8,70 | Very soluble | 
N[C@@H](CCC(=O)O)C(=O)O [Glutamic acid] | 9,58 |  | 
NC(=O)CC[C@H](N)C(=O)O [Glutamine] | 9,00 |  | Solubility in water [3]: 42 g/kg
NCC(=O)O [Glycine] | 9,58 |  | 
N[C@@H](Cc1c[nH]cn1)C(=O)O [Histidine] | 9,09 | 43,5 g/kg | 
CC[C@H](C)[C@H](N)C(=O)O [Isoleucine] | 9,60 | 34,2 g/kg | 
CC(C)C[C@H](N)C(=O)O [Leucine] |  | 22,0 g/kg | 
NCCCC[C@H](N)C(=O)O [Lysine] | 9,16 |  | Solubility in water, g/kg: Very soluble ^a)b)
CSCC[C@H](N)C(=O)O [Methionine] | 9,08 |  | Solubility in water [3]: 56 g/kg
NCC(=O)NCC(=O)O [N-Glycylglycine] (H-Gly-Gly-OH) | 8,10 |  | 
N[C@@H](Cc1ccccc1)C(=O)O [Phenylalanine] | 9,09 | 27,9 g/kg | 
N[C@@H](CO)C(=O)O [Serine] | 9,05 |  | 
C[C@@H](O)[C@H](N)C(=O)O [Threonine] | 8,96 |  | 
CC(C)[C@H](N)C(=O)O [Valine] | 9,52 | 88,5 g/kg | 
CN1CCCC1c1cccnc1 (stereo not drawn) [nicotine, 3-(1-methyl-2-pyrrolidinyl)-pyridine] |  |  | pKa of nicotine [2]: about 7.8
